Data reported in patent US12318372B2, “Formulations with enhanced SN-38 solubility and oral absorption” (TaiRx Inc., priority 2021, dated 2025).
Values joined by “and” are separate entries in the source; they are usually repeats but may differ in a detail not shown here. Identical values can stand only once. “Also recorded” adds a separate entry of the source. Counter-ions that a name gives are not always drawn. Like-named read-outs stand apart in the source and are kept apart here.

What was measured:
[1] = tested on: HCT-116 colon cancer cells; assay: Study #1 orthotopic HCT-116 xenograft efficacy; type: in vivo, mouse
[2] = cited from earlier work
[3] = rabbit; cited from earlier work
[4] = cited from earlier work; remark: listed apart in the source
[5] = guinea pig; cited from earlier work
[6] = cited from earlier work; remark: listed apart in the source
[7] = SN-38 solubility at saturation in excipients and excipient mixtures (HPLC); type: physicochemical
Procedure: The saturation is obtained by adding gradually an excess of active ingredient (maximum target being 50 mg/mL) to a given volume of test medium. […]
The supernatant is then isolated, diluted in a solvent mixture allowing its injection into the chromatographic system. The concentration in solution for each medium is determined by HPLC (external standardization).

[8] = Visual SN-38 solubilization in PLGA/NMP mixtures; type: physicochemical; settings: PLGA (75:25):NMP mixture at mass ratio 1:2
Procedure: SN-38 solubilization in these two PLGA/NMP solution mixtures is then tested with a SN-38 starting concentration of 20 mg/g and then decreasing the tested concentration if needed. Table 13 presents the results of macroscopic observation of tentative SN-38 solubilization in PLGA/NMP mixtures

[9] = times more cytotoxic than CPT-11; cited from earlier work
[10] = SN-38 content of NMP/VitE TPGS/polymer gels (HPLC); type: physicochemical
Procedure: For HPC, both above tested percentages (2 and 5%) will be further tested with SN-38. […] This starting solution is prepared by over stirred 24 hours at 20° C. and then filtered before being used for into polymer solubilization.
The three polymers of interest (HPMC E4M, HPMC E10M, and HPC Klucel) are weighed (according to the above selected percentages) and added for solubilization and under stirring onto the SN-38 solution in NMP/VitE TPGS 50/20 mixture. After 24 h stirring at 20° C., the 3 samples are visually observed, and their SN-38 content is assessed by HPLC (after dilution in an appropriate solvent).

[11] = tested on: HCT-116 colon cancer cells; assay: Study #2 follow up orthotopic HCT-116 xenograft efficacy; type: in vivo, female BALB/c nude mice; settings: 25.9 mg/kg i.v. BIW x 6 doses
[12] = tested on: HCT-116 colon cancer cells; type: in vivo; settings: 25.9 mg/kg i.v. Q4D x 3 wks

## CCc1c2c(nc3ccc(OC(=O)N4CCC(N5CCCCC5)CC4)cc13)-c1cc3c(c(=O)n1C2)COC(=O)[C@]3(O)CC [CPT-11, irinotecan]
[1]; 50 mg/kg i.p. Q4D x 3 wks
  Tumor weights on Day 34 Geometric mean: 24.9 mg
  Tumor weights on Day 34 TGI %: 85%
[2]; 20 mg/kg i.v.
  dogs showing emesis: five of six
[2]; dogs, 40 mg/kg
  mortality: the two dogs died 3 and 6 minutes later
  time to emesis: 1 min
[3]
  antigenic potential: has shown antigenic potential
[4]; HCl salt, in water
  aqueous solubility: 25 mM
[5]
  antigenic potential: has shown antigenic potential
[6]; humans, at the end of a 24-hour infusion
  irinotecan remained unhydrolyzed: 33-66%
[6]; in humans
  bioconversion to SN-38: ~5%

## CCc1c2c(nc3ccc(O)cc13)-c1cc3c(c(=O)n1C2)COC(=O)[C@]3(O)CC [SN-38, 7-Ethyl-10-hydroxy-camptothecin]
[7]; in Cremophor EL at 30% in water, 20° C.
  SN-38 solubility: 0.017 mg/g
[7]; in Labrafil M1944CS, 20° C.
  SN-38 solubility: 0.054 mg/g
[7]; in NMP/VitE TPGS (50/20 w/w), 20° C.
  SN-38 solubility: 18.51 mg/g
[7]; in NMP/VitE TPGS/Capmul MCM/Tween 20 (50/20/10/20 w/w)
  SN-38 solubility: 7.57 mg/g
[7]; in NMP/VitE TPGS/GELUCIRE (50/20/20), 20° C.
  SN-38 solubility: 9.2 mg/g and 9.25 mg/g
[7]; in NMP/VitE TPGS/Isopropyl myristate/Solutol HS15 (50/20/10/20 w/w)
  SN-38 solubility: 9.04 mg/g
[7]; in NMP/VitE TPGS/KOLLIDON VA64 (50/20/20), 20° C.
  SN-38 solubility: 15.6 mg/g and 15.65 mg/g
[7]; in NMP/VitE TPGS/LUTROL F127 (50/20/20), 25° C.
  SN-38 solubility: 10.0 mg/g and 10.02 mg/g
[7]; in NMP/VitE TPGS/Labrafac Lipophile WL1349/Lauroglycol 90 (50/20/10/20 w/w)
  SN-38 solubility: 2.76 mg/g
[7]; in NMP/VitE TPGS/Mygliol 812/Propylene glycol (50/20/10/20 w/w)
  SN-38 solubility: 5.95 mg/g
[7]; in NMP, 24 h stirring at 20° C.
  SN-38 solubility: 42 mg/g
[7]; in Propylene glycol, 20° C.
  SN-38 solubility: 1.15 mg/g
[7]; in VitE TPGS at 20% in water, 20° C.
  SN-38 solubility: ≈0.01 mg/g
[7]; in all other tested media (other than NMP, propylene glycol, Capmul MCM)
  SN-38 solubility: lower than 0.054 mg/g
[8]
  Concentration at which SN-38 is soluble: 10 mg/g
[2]; dogs, 11.6 mg/kg i.v.
  emesis or nausea: no emesis or nausea was noted
[4]; Zhang et al. 2004
  solubility in water: < 40 µg/mL
[4]; background statement b6
  solubility (S): < 10 µg/mL
[5]
  antigenic potential: no antigenic potential
[9]
  cytotoxicity relative to CPT-11: 200-2000 times
[10]; 2% HPC (vs NMP) in NMP/VitE TPGS (50 w/20 w)
  SN-38 content calculated by HPLC: 14.32 mg/g
[10]; 4% HPMC E4M (vs NMP) in NMP/VitE TPGS (50 w/20 w)
  SN-38 content calculated by HPLC: 14.03 mg/g
[10]; 4% HPMC E10M (vs NMP) in NMP/VitE TPGS (50 w/20 w)
  SN-38 content calculated by HPLC: 14.00 mg/g
[10]; 5% HPC (vs NMP) in NMP/VitE TPGS (50 w/20 w), 24 h stirring at 20° C.
  SN-38 content calculated by HPLC: 13.95 mg/g
[10]; HPMC E4M, HPMC E10M or HPC added onto 15 mg/g SN-38 solution in NMP/VitE TPGS 50/20
  SN-38 precipitation on addition of gelling polymers: No SN-38 precipitation is observed; also recorded: without precipitation of SN-38
[10]; No polymer in NMP/VitE TPGS (50 w/20 w), filtered 15 mg/g starting solution
  SN-38 content calculated by HPLC: 14.47 mg/g

## CCc1c2c(nc3ccc(OC(=O)N4CCC(N5CCCCC5)CC4)cc13)-c1cc3c(c(=O)n1C2)COC(=O)[C@]3(O)CC [Irinotecan HCL trihydrate, Irinotecan HCL Trihydrate]
[1]; 20.8 mg/kg i.v. BIW x 3 wks
  Tumor weights on Day 34 Geometric mean: 171.0 mg
  Tumor weights on Day 34 TGI %: 78%
[11]
  Tumor weights on Day 32 Geometric mean: 134.0 mg
  Tumor weights on Day 32 TGI %: 84%
[12]
  Tumor weights on Day 34 Geometric mean: 428.6 mg
  Tumor weights on Day 34 TGI %: 60%
